Data from patent publication US10934297B2, “5-heteroaryl substituted indazole-3-carboxamides and preparation and use thereof” (Samumed, LLC, priority 2018, dated 2021).
pEC50, pIC50: −log10 of the molar value.

Assays:
[1] = tested on: primary human fibroblasts derived from IPF patients (LL29 cells); experiment: Inhibition of the fibrotic process: αSMA staining in TGF-β1 treated LL29 fibroblasts; assay type: cell-based; settings: Homo sapiens, Fibroblast; for pEC50: 96 h, LL29 cells, TGF-β1 20 ng/mL, 4 days, % αSMA positive cells
Procedure, shortened: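 LL29 fibroblasts from IPF patients, in F12 medium with 1% FBS, treated with TGF-β1 plus compound; TGF-β1 with DMSO as positive control, DMSO alone as negative control. After 4 days' incubation, SYTOX green nucleic acid stain added at 1 μM final, 30 min at room temperature.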

[2] = tested on: Wnt activity (Sp5-Luc reporter in SW480 cells); experiment: Screening assay for Wnt activity: Sp5-Luc reporter gene assay in SW480 colon carcinoma cells; assay type: cell-based, human; settings: Homo sapiens, 36 to 48 hours
Procedure, shortened: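 EC50 values come from a variable-slope four-parameter fit of luminescence normalized to DMSO-only wells. The read-out follows 36–48 h incubation at 37 °C, 5% CO2, in DMEM containing 1% fetal bovine serum. Cells are hygromycin-selected SW480 stably expressing firefly luciferase under a Wnt-responsive Sp5 promoter (eight TCF/LEF sites).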

[3] = target: DYRK1A kinase (Homo sapiens (Human), UniProt Q13627); experiment: DYRK1A kinase assay (Ser/Thr 18 peptide Z-lyte FRET); assay type: biochemical; settings: read-out: EC50 (method: IC50)
Procedure, shortened: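 Kinase reactions with compound ran 1 h at room temperature in duplicate, and development reagent was then added for another hour.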

[4] = target: GSK3β kinase (Homo sapiens (Human), UniProt P49841); experiment: GSK3β kinase assay (Ser/Thr 09 peptide Z-lyte FRET); assay type: biochemical; settings: read-out: EC50 (method: IC50)
Sequence of GSK3β kinase (P49841 whole entry): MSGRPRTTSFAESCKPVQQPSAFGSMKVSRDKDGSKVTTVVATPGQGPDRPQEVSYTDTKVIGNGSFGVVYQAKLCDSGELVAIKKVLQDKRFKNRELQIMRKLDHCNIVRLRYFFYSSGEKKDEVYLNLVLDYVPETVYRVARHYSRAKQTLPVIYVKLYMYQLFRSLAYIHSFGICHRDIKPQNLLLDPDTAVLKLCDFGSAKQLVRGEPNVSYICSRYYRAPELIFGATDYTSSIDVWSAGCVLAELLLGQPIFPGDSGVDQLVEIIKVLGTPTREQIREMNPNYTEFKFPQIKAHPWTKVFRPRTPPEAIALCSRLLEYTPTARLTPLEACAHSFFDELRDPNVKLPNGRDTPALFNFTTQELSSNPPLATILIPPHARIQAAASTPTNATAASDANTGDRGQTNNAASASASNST
Procedure, shortened: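 Non-radioactive Z-lyte FRET read-out, kinase activity expressed as coumarin/fluorescein emission ratio. Compounds incubated with the reaction mixture one hour at room temperature in duplicate, then development buffer added for another hour. IC50 from non-linear regression of dose-response curves.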

[5] = tested on: primary human mesenchymal stem cells (hMSCs); experiment: Tenocyte differentiation assay (SCXA-positive cells) in hMSCs; assay type: cell-based; settings: for pEC50: Homo sapiens, Mesenchymal stem cells, 96 h, hMSCs, 4 days, SCXA positive cells; for percent in parentheses under EC50 >100: given for EC50 >100 μM, meaning not defined in this example
From the text: Representative compounds were screened using primary human mesenchymal stem cells (hMSCs) to determine their ability to induce tenocyte differentiation (process by which tendon is developed).
Primary human mesenchymal stem cells (hMSCs) were purchased from Lonza (Walkersville, Md.) and expanded in Mesenchymal Stem Cell Growth Media (Lonza). Cells between passage 3 and 6 were used for the experiments.
Cells were fixed using 4% formaldehyde (Electron Microscopy Sciences), and stained with anti-Sclerasis (anti-SCXA) antibodies (Abgent, San Diego, Calif.) [Webb S., et.al., Retinoic acid receptor signaling preserves tendon stem cell characteristics and prevents spontaneous differentiation in vitro, Stem Cell Research & Therapy 2016, 7:45] overnight at 4° C. […] Number of cells positive for SCXA in each well was quantified using the CellInsight CX5. Data was normalized to the average of 12 DMSO treated wells on the same plate using Dotmatics Studies module. The normalized averages (fold change over DMSO) of 3 replicate wells for each compound concentration were calculated. Due to solubility limitations of some of the compounds, values for higher doses were manually corrected and curve fitting and EC50 determinations were performed using Dotmatics Studies.

[6] = tested on: SW480 colon carcinoma cells; experiment: Cell viability assay (CellTiter-Glo) in SW480 colon carcinoma cells; assay type: cell-based, human; settings: Homo sapiens, 96 h, four days
Procedure, shortened: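 Viability was taken from CellTiter-Glo ATP luminescence, read about 12 min after reagent addition, relative to DMSO controls. The cells were Sp5-Luc reporter SW480 colon carcinoma cells, 2,000/well in 1% FBS DMEM, exposed to compound for four days at 37 °C.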

[7] = tested on: IL-6; experiment: IL-6 inhibition in LPS-stimulated human peripheral blood mononuclear cells (HTRF); assay type: cell-based; settings: Homo sapiens, PBMC; for pEC50: huPBMCs, LPS 50 ng/mL, 22 hours, IL-6 HTRF; for inhibition at 10 µM: read-out: percent inhibition at 10 μM
Procedure, shortened: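 HTRF 665/620 nm ratio, read after 3 h antibody incubation at room temperature, quantified IL-6 released by fresh human PBMCs (1×10e6 cells/mL, 1% FBS-RPMI). The cells got compound, then 50 ng/mL LPS at 2 h, followed by a further 22 h at 37° C. EC50 came from DMSO-normalized readings run in duplicate.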

SMILES	pEC50 [1]	pEC50 [2]	pIC50 [3]	pIC50 [4]	pEC50 [5]	percent in parentheses under EC50 >100 [5]	pEC50 [6]	pEC50 [7]	inhibition at 10 µM [7] [%]	inhibition at 10 µM ([1]; read-out: percent inhibition at 10 μM) [%]
CN1CCC(Oc2ccc(NC(=O)c3n[nH]c4c(F)cc(-c5cnn(C)c5)cc34)cn2)CC1 [Compound 129, 7-Fluoro-5-(1-methyl-1H-pyrazol-4-yl)-N-(6-((1-methylpiperidin-4-yl)oxy)pyridin-3-yl)-1H-indazole-3-carboxamide]	5.73	5.21	7.52	7.06	< 4.00	(13.0%)	5.52	5.17		
Cc1cnc(NC(=O)c2n[nH]c3ccc(-c4cnn(C5CCN(C)CC5)c4)cc23)s1 [Compound 144, 5-(1-(1-Methylpiperidin-4-yl)-1H-pyrazol-4-yl)-N-(5-methylthiazol-2-yl)-1H-indazole-3-carboxamide]	5.66	< 5.00	8.10	5.19	< 4.00	(27.4%)	5.89	< 5.00	49	
CN1CCC(Oc2cccc(NC(=O)c3n[nH]c4cc(F)c(-c5cnn(C)c5)cc34)c2)CC1 [Compound 151, 6-Fluoro-5-(1-methyl-1H-pyrazol-4-yl)-N-(3-((1-methylpiperidin-4-yl)oxy)phenyl)-1H-indazole-3-carboxamide]	< 5.00	6.95	8.30	7.10	< 4.00	(3.5%)	6.59	5.13		
Cc1ncc(-c2ccc3[nH]nc(C(=O)N[C@H]4CCN(CC(C)C)C[C@@H]4F)c3c2)n1C [Compound 100, 5-(1,2-Dimethyl-1H-imidazol-5-yl)-N-((3 S,4 S)-3-fluoro-1-isobutylpiperidin-4-yl)-1H-indazole-3-carboxamide]	5.63	5.99	7.34	7.37	5.73		5.10	< 5.00	5.5	
CN1CCC(n2cc(-c3cc4c(C(=O)Nc5cncc(F)c5)n[nH]c4cc3F)cn2)CC1 [Compound 126, 6-Fluoro-N-(5-fluoropyridin-3-yl)-5-(1-(1-methylpiperidin-4-yl)-1H-pyrazol-4-yl)-1H-indazole-3-carboxamide]	5.61	6.47	8.05	6.63	5.59		5.81	5.24		
Cc1ncc(-c2ccc3[nH]nc(C(=O)NC4CCN(c5ccc(F)cc5)CC4)c3c2)n1C [Compound 148, 5-(1,2-Dimethyl-1H-imidazol-5-yl)-N-(1-(4-fluorophenyl)piperidin-4-yl)-1H-indazole-3-carboxamide]	5.33	5.35	7.31	7.24	5.51		5.10	< 5.00	24.2	
Cc1ncc(-c2ccc3[nH]nc(C(=O)N[C@@H](C(C)C)C(F)(F)F)c3c2)n1C [Compound 133, (S)-5-(1,2-Dimethyl-1H-imidazol-5-yl)-N-(1,1,1-trifluoro-3-methylbutan-2-yl)-1H-indazole-3-carboxamide]	< 5.00	< 5.00	6.03	5.87	< 4.00	(15.8%)	< 5.00	< 5.00	20.2	35.8
Cc1cc(NC(=O)c2n[nH]c3ccc(-c4cnn(C5CCN(C)CC5)c4)cc23)sn1 [Compound 143, N-(3-Methylisothiazol-5-yl)-5-(1-(1-methylpiperidin-4-yl)-1H-pyrazol-4-yl)-1H-indazole-3-carboxamide]	6.68	7.05	8.30	7.28	< 4.00	(23.0%)	7.22	5.85		
CN1CCC(Oc2cc(NC(=O)c3n[nH]c4cc(F)c(-c5cnn(C)c5)cc34)ccn2)CC1 [Compound 156, 6-Fluoro-5-(1-methyl-1H-pyrazol-4-yl)-N-(2-((1-methylpiperidin-4-yl)oxy)pyridin-4-yl)-1H-indazole-3-carboxamide]	5.86	6.96	8.70	7.28	5.58		7.19	5.37		
Cc1ncc(-c2cc(F)c3[nH]nc(C(=O)N[C@@H](C)C(F)(F)F)c3c2)n1C [Compound 134, (S)-5-(1,2-Dimethyl-1H-imidazol-5-yl)-7-fluoro-N-(1,1,1-trifluoropropan-2-yl)-1H-indazole-3-carboxamide]	5.97	< 5.00	6.32	7.34	< 4.00	(38.8%)	< 5.00	< 5.00	8.1	
Cc1ncc(-c2cc3c(C(=O)Nc4ccc(OC5CCN(C)CC5)cc4)n[nH]c3cc2F)s1 [Compound 163, 6-Fluoro-N-(4-((1-methylpiperidin-4-yl)oxy)phenyl)-5-(2-methylthiazol-5-yl)-1H-indazole-3-carboxamide]	6.00	5.82	8.40	7.03	< 4.00	(40.7%)	6.48	5.05		
CN1CCC(n2cc(-c3ccc4[nH]nc(C(=O)Nc5cncc(F)c5)c4c3)cn2)CC1 [Compound 125, N-(5-Fluoropyridin-3-yl)-5-(1-(1-methylpiperidin-4-yl)-1H-pyrazol-4-yl)-1H-indazole-3-carboxamide]	6.22	6.45	8.10	6.56	< 4.00	(12.3%)	6.18	5.45		
CN1CCC(n2cc(-c3ccc4[nH]nc(C(=O)Nc5cnn(C)c5)c4c3)cn2)CC1 [Compound 142, N-(1-Methyl-1H-pyrazol-4-yl)-5-(1-(1-methylpiperidin-4-yl)-1H-pyrazol-4-yl)-1H-indazole-3-carboxamide]	6.94	6.89	8.10	6.68	< 4.00	(38.2%)	6.94	5.96		
CN1CCC(Oc2ccc(NC(=O)c3n[nH]c4cc(F)c(-c5ccn(C)n5)cc34)cc2)CC1 [Compound 160, 6-Fluoro-5-(1-methyl-1H-pyrazol-3-yl)-N-(4-((1-methylpiperidin-4-yl)oxy)phenyl)-1H-indazole-3-carboxamide]	5.49	5.45	7.21	5.49	< 4.00	(18.6%)	5.59	< 5.00	27.9	
Cn1cc(-c2cc(F)c3[nH]nc(C(=O)NC4CCC(F)(F)CC4)c3c2)cn1 [Compound 16, N-(4,4-Difluorocyclohexyl)-7-fluoro-5-(1-methyl-1H-pyrazol-4-yl)-1H-indazole-3-carboxamide]	5.99	< 5.00	6.42	7.39	5.86		5.10	< 5.00	37.5	
